Test results as given in the NIST ThermoML archive (doi:10.1021/je201116t).

Test: xn = mol fraction of the nth substance listed
Conditions: 101 kPa, Liquid; for viscosity: Capillary tube (Ostwald / Ubbelohde) method

CCC(=O)[O-].CC[NH+]1CCNCC1 [N-ethylpiperazinium propionate] + CCCCO
Conditions | mass density, 298.15 K [kg/m3] | mass density, 303.15 K [kg/m3] | mass density, 308.15 K [kg/m3] | mass density, 313.15 K [kg/m3] | viscosity, 298.15 K [mPa·s] | viscosity, 303.15 K [mPa·s] | viscosity, 308.15 K [mPa·s] | viscosity, 313.15 K [mPa·s]
x2 = 0 | 1008.36 | 1004.38 | 1000.33 | 996.237 | 243.49 | 164.81 | 113.44 | 80.93
x2 = 0.1025 | 998.465 | 994.495 | 990.478 | 986.427 | 177.49 | 122.06 | 84.94 | 61.07
x2 = 0.2018 | 987.497 | 983.536 | 979.527 | 975.484 | 133.79 | 91.02 | 63.82 | 46.53
x2 = 0.2999 | 975.365 | 971.427 | 967.437 | 963.409 | 98.72 | 67.32 | 47.84 | 35.22
x2 = 0.3989 | 961.397 | 957.475 | 953.503 | 949.491 | 73.16 | 50.02 | 35.72 | 26.48
x2 = 0.5016 | 944.783 | 940.876 | 936.907 | 932.906 | 53.48 | 36.42 | 26.02 | 19.37
x2 = 0.6004 | 926.29 | 922.385 | 918.422 | 914.42 | 38.82 | 26.35 | 18.8 | 14.05
x2 = 0.7012 | 903.96 | 900.045 | 896.078 | 892.071 | 27.07 | 18.12 | 12.92 | 9.675
x2 = 0.8008 | 877.764 | 873.84 | 869.866 | 865.851 | 17.51 | 11.84 | 8.502 | 6.434
x2 = 0.8995 | 845.961 | 842.05 | 838.083 | 834.079 | 9.611 | 6.701 | 4.966 | 3.87
